Laboratory results taken from patent US20090076062A1, “Organic Compounds” (priority 2007, published 2009).

Molecular target: T1, Recombinant human renin (Homo sapiens, UniProt P00797)
T1 construct: made in house; host or cells: Chinese Hamster Ovary cells
T1 sequence (P00797 67-406): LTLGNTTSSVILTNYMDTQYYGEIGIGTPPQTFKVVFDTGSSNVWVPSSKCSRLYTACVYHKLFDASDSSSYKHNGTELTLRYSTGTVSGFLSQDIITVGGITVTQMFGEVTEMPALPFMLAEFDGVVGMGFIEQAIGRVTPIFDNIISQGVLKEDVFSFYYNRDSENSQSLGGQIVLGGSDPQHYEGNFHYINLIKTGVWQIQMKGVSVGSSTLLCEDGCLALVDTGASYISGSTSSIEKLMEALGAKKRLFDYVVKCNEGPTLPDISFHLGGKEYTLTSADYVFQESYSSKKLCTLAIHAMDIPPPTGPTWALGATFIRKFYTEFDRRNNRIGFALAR
Assay: Renin inhibitory activity in vitro, hu-renin FRET assay
Assay type: biochemical
Protocol: Recombinant human renin (expressed in Chinese Hamster Ovary cells and purified using standard methods) at 4 nM concentration is incubated with test compound at various concentrations for 1 h at RT in 0.1 M Tris-HCl buffer, pH 7.4, containing 0.05 M NaCl, 0.5 mM EDTA and 0.05% CHAPS. Synthetic peptide substrate Arg-Glu(EDANS)-Ile-His-Pro-Phe-His-Leu-Val-Ile_His_Thr-Lys(DABCYL)-Arg9 is added to a final concentration of 2 μM and increase in fluorescence is recorded at an excitation wave-length of 340 nm and at an emission wave-length of 485 nm in a microplate spectro-fluorimeter. IC50 values are calculated from percentage of inhibition of renin activity as a function of test compound concentration (Fluorescence Resonance Energy Transfer, FRET, assay). Recombinant human renin (expressed in Chinese Hamster Ovary cells and purified using standard methods) at 1 nM concentration is incubated with test compound at various concentrations for 1.5 h at 37° C. in 0.1 M Tris/HCl pH 7.4 containing 0.05 M NaCl, 0.5 mM EDTA and 0.025% (w/v) CHAPS. Synthetic peptide substrate Ac-Ile-His-Pro-Phe-His-Leu-Val-Ile-His-Asn-Lys-[DY-505-X5] is added to a final concentration of 5 μM. The enzyme reaction is stopped by adding 6 μL of 1.0% TFA. The product of the reaction is separated by HPLC and quantified by spectrophotometric measurement at […] wave-length. IC50 values are calculated from percentage of inhibition of renin activity as a function of test compound concentration.
Renin inhibitory activity was assessed in vitro by FRET assay (as above described). Results for representative compounds of formula I are: […]

Structure (SMILES) | IC50 [nM]
COCCCOc1cc(C[C@@H](C[C@H](N)[C@@H](O)C[C@H](C(=O)NCC2CCCCO2)C(C)C)C(C)C)ccc1OC (single isomer, unassigned) [Example 19, (2S,4S,5S,7S)-5-Amino-4-hydroxy-2-isopropyl-7-[4-methoxy-3-(3-methoxy-propoxy)-benzyl]-8-methyl-nonanoic acid [2(R) or 2(S)-1-(tetrahydro-pyran-2-yl)methyl]-amide] | 8
COCCCOc1cc(C[C@@H](C[C@H](N)[C@@H](O)C[C@H](C(=O)N[C@@H]2CCN(C)C2)C(C)C)C(C)C)ccc1OC [Example 2, (2S,4S,5S,7S)-5-Amino-4-hydroxy-2-isopropyl-7-[4-methoxy-3-(3-methoxy-propoxy)-benzyl]-8-methyl-nonanoic acid ((R)-1-methyl-pyrrolidin-3-yl)-amide] | 4
COCCCOc1cc(C[C@@H](C[C@H](N)[C@@H](O)C[C@H](C(=O)N[C@H]2CCOC2)C(C)C)C(C)C)ccc1OC [Example 13, (2S,4S,5S,7S)-5-Amino-4-hydroxy-2-isopropyl-7-[4-methoxy-3-(3-methoxy-propoxy)-benzyl]-8-methyl-nonanoic acid ((S)-tetrahydrofuran-3-yl)-amide] | 0.2
COCCCOc1cc(C[C@@H](C[C@H](N)[C@@H](O)C[C@H](C(=O)NC2CCCOC2)C(C)C)C(C)C)ccc1OC (single isomer, unassigned) [Example 22, (2S,4S,5S,7S)-5-Amino-4-hydroxy-2-isopropyl-7-[4-methoxy-3-(3-methoxy-propoxy)-benzyl]-8-methyl-nonanoic acid [(R)- or (S)-3-(tetrahydro-pyran-3-yl)]-amide] | 2.5
COCCCOc1cc(C[C@@H](C[C@H](N)[C@@H](O)C[C@H](C(=O)NC2CCN(C)CC2)C(C)C)C(C)C)ccc1OC [Example 5, (2S,4S,5S,7S)-5-Amino-4-hydroxy-2-isopropyl-7-[4-methoxy-3-(3-methoxy-propoxy)-benzyl]-8-methyl-nonanoic acid (1-methyl-piperidin-4-yl)-amide] | 3.2
COCCCOc1cc(C[C@@H](C[C@H](N)[C@@H](O)C[C@H](C(=O)NC2CCCOC2)C(C)C)C(C)C)ccc1OC (single isomer, unassigned) [Example 23, (2S,4S,5S,7S)-5-Amino-4-hydroxy-2-isopropyl-7-[4-methoxy-3-(3-methoxy-propoxy)-benzyl]-8-methyl-nonanoic acid [(R)- or (S)-3-(tetrahydro-pyran-3-yl)]-amide] | 0.5
COCCCOc1cc(C[C@@H](C[C@H](N)[C@@H](O)C[C@H](C(=O)NCC2CCOC2)C(C)C)C(C)C)ccc1OC (single isomer, unassigned) [Example 30, (2S,4S,5S,7S)-5-Amino-4-hydroxy-2-isopropyl-7-[4-methoxy-3-(3-methoxy-propoxy)-benzyl]-8-methyl-nonanoic acid [(R) or (S)-1-(tetrahydro-furan-3-yl)methyl]-amide] | 0.8
COCCCOc1cc(C[C@@H](C[C@H](N)[C@@H](O)C[C@H](C(=O)NCc2ccoc2)C(C)C)C(C)C)ccc1OC [Example 17, (2S,4S,5S,7S)-5-Amino-4-hydroxy-2-isopropyl-7-[4-methoxy-3-(3-methoxy-propoxy)-benzyl]-8-methyl-nonanoic acid (furan-3-ylmethyl)-amide] | 2.5
COCCCOc1cc(C[C@@H](C[C@H](N)[C@@H](O)C[C@H](C(=O)N[C@H]2CCN(C)C2)C(C)C)C(C)C)ccc1OC [Example 3, (2S,4S,5S,7S)-5-Amino-4-hydroxy-2-isopropyl-7-[4-methoxy-3-(3-methoxy-propoxy)-benzyl]-8-methyl-nonanoic acid ((S)-1-methyl-pyrrolidin-3-yl)-amide] | 0.7
COCCCOc1cc(C[C@@H](C[C@H](N)[C@@H](O)C[C@H](C(=O)NCC2CCCCO2)C(C)C)C(C)C)ccc1OC (single isomer, unassigned) [Example 20, (2S,4S,5S,7S)-5-Amino-4-hydroxy-2-isopropyl-7-[4-methoxy-3-(3-methoxy-propoxy)-benzyl]-8-methyl-nonanoic acid [(R)- or (S)-1-(tetrahydro-pyran-2-yl)methyl]-amide] | 7

Further compounds by falling IC50, results first:

IC50 [nM] | Structure (SMILES)
4 | COCCCOc1cc(C[C@@H](C[C@H](N)[C@@H](O)C[C@H](C(=O)NC[C@H]2CCCO2)C(C)C)C(C)C)ccc1OC [Example 11, (2S,4S,5S,7S)-5-Amino-4-hydroxy-2-isopropyl-7-[4-methoxy-3-(3-methoxy-propoxy)-benzyl]-8-methyl-nonanoic acid [(R)-1-(tetrahydro-furan-2-yl)methyl]-amide]
3.5 | COCCCOc1cc(C[C@@H](C[C@H](N)[C@@H](O)C[C@H](C(=O)NC[C@@H]2CCCO2)C(C)C)C(C)C)ccc1OC [Example 10, (2S,4S,5S,7S)-5-Amino-4-hydroxy-2-isopropyl-7-[4-methoxy-3-(3-methoxy-propoxy)-benzyl]-8-methyl-nonanoic acid [(S)-1-(tetrahydro-furan-2-yl)methyl]-amide]
1.4 | COCCCOc1cc(C[C@@H](C[C@H](N)[C@@H](O)C[C@H](C(=O)NC2CCOCC2)C(C)C)C(C)C)ccc1OC [Example 1, (2S,4S,5S,7S)-5-Amino-4-hydroxy-2-isopropyl-7-[4-methoxy-3-(3-methoxy-propoxy)-benzyl]-8-methyl-nonanoic acid (tetrahydro-pyran-4-yl)-amide]
1.4 | COCCCOc1cc(C[C@@H](C[C@H](N)[C@@H](O)C[C@H](C(=O)NCC2CCOCC2)C(C)C)C(C)C)ccc1OC [Example 14, (2S,4S,5S,7S)-5-Amino-4-hydroxy-2-isopropyl-7-[4-methoxy-3-(3-methoxy-propoxy)-benzyl]-8-methyl-nonanoic acid (tetrahydro-pyran-4-ylmethyl)-amide]
0.9 | COCCCOc1cc(C[C@@H](C[C@H](N)[C@@H](O)C[C@H](C(=O)NCc2ccco2)C(C)C)C(C)C)ccc1OC [Example 18, (2S,4S,5S,7S)-5-Amino-4-hydroxy-2-isopropyl-7-[4-methoxy-3-(3-methoxy-propoxy)-benzyl]-8-methyl-nonanoic acid (furan-2-ylmethyl)-amide]
0.7 | COCCCOc1cc(C[C@@H](C[C@H](N)[C@@H](O)C[C@H](C(=O)N[C@@H]2CCOC2)C(C)C)C(C)C)ccc1OC [Example 12, (2S,4S,5S,7S)-5-Amino-4-hydroxy-2-isopropyl-7-[4-methoxy-3-(3-methoxy-propoxy)-benzyl]-8-methyl-nonanoic acid ((R)-tetrahydrofuran-3-yl)-amide]
0.6 | COCCCOc1cc(C[C@@H](C[C@H](N)[C@@H](O)C[C@H](C(=O)NC[C@@H]2CCCO2)C(C)C)C(C)C)ccc1C [Example 28, (2S,4S,5S,7S)-5-Amino-4-hydroxy-2-isopropyl-7-[3-(3-methoxy-propoxy)-4-methyl-benzyl]-8-methyl-nonanoic acid [(S)-1-(tetrahydro-furan-2-yl)methyl]-amide]
0.5 | COCCCOc1cc(C[C@@H](C[C@H](N)[C@@H](O)C[C@H](C(=O)NC[C@H]2CCCO2)C(C)C)C(C)C)ccc1C [Example 27, (2S,4S,5S,7S)-5-Amino-4-hydroxy-2-isopropyl-7-[3-(3-methoxy-propoxy)-4-methyl-benzyl]-8-methyl-nonanoic acid [(R)-1-(tetrahydro-furan-2-yl)methyl]-amide]
0.5 | COCCCOc1cc(C[C@@H](C[C@H](N)[C@@H](O)C[C@H](C(=O)NC2CCOCC2)C(C)C)C(C)C)ccc1C [Example 26, (2S,4S,5S,7S)-5-Amino-4-hydroxy-2-isopropyl-7-[3-(3-methoxy-propoxy)-4-methyl-benzyl]-8-methyl-nonanoic acid (tetrahydro-pyran-4-yl)-amide]
0.4 | COCCCOc1cc(C[C@@H](C[C@H](N)[C@@H](O)C[C@H](C(=O)NCC2CCOC2)C(C)C)C(C)C)ccc1OC (single isomer, unassigned) [Example 29, (2S,4S,5S,7S)-5-Amino-4-hydroxy-2-isopropyl-7-[4-methoxy-3-(3-methoxy-propoxy)-benzyl]-8-methyl-nonanoic acid [3(R) or 3(S)-1-(tetrahydro-furan-3-yl)methyl]-amide]
0.3 | COCCCCc1cc(C[C@@H](C[C@H](N)[C@@H](O)C[C@H](C(=O)NC2CCOCC2)C(C)C)C(C)C)ccc1OC [Example 36, (2S,4S,5S,7S)-5-Amino-4-hydroxy-2-isopropyl-7-[4-methoxy-3-(4-methoxy-butyl)-benzyl]-8-methyl-nonanoic acid (tetrahydro-pyran-4-yl)-amide]
